pIC50: −log10 of the molar value.
Columns and labels:
Assay in all cases: Kinase Assay
[1] = molecular target: Phosphatidylinositol 4,5-bisphosphate 3-kinase catalytic subunit alpha isoform (Homo sapiens, UniProt P42336)
Text: (§1) Kinase assay using PI3K.

[2] = molecular target: T1, Phosphatidylinositol 4,5-bisphosphate 3-kinase catalytic subunit delta isoform (Homo sapiens, UniProt O00329)
T1 sequence (O00329 whole entry): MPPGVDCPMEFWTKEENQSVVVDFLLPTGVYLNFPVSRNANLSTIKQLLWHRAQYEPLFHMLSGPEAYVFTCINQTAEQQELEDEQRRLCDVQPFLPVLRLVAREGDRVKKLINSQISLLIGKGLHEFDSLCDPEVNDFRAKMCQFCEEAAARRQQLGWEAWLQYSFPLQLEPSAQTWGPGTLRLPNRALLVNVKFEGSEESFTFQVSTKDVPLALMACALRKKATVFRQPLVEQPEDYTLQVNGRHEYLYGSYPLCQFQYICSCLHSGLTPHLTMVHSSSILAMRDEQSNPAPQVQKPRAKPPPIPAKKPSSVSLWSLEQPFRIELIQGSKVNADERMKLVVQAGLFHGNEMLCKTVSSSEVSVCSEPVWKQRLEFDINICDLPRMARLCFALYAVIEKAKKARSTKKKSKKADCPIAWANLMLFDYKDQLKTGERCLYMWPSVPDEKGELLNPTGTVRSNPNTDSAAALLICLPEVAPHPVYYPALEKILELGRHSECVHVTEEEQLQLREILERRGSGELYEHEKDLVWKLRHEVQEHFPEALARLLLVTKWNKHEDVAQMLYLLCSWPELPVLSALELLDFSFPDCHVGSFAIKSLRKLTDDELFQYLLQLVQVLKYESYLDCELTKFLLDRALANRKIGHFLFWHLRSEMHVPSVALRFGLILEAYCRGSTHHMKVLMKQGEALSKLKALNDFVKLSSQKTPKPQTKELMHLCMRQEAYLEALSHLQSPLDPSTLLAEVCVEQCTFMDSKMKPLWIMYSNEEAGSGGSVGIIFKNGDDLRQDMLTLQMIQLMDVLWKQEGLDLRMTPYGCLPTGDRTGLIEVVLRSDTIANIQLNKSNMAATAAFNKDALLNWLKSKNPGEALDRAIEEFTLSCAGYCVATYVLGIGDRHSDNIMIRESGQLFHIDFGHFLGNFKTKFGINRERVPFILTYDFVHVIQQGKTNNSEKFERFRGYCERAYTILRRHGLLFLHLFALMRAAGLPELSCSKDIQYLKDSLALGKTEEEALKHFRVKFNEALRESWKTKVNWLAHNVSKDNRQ
Text: as §1

[3] = molecular target: Phosphatidylinositol 4,5-bisphosphate 3-kinase catalytic subunit gamma isoform (Homo sapiens, UniProt P48736)
Chain of Phosphatidylinositol 4,5-bisphosphate 3-kinase catalytic subunit gamma isoform (P48736 whole entry, canonical isoform): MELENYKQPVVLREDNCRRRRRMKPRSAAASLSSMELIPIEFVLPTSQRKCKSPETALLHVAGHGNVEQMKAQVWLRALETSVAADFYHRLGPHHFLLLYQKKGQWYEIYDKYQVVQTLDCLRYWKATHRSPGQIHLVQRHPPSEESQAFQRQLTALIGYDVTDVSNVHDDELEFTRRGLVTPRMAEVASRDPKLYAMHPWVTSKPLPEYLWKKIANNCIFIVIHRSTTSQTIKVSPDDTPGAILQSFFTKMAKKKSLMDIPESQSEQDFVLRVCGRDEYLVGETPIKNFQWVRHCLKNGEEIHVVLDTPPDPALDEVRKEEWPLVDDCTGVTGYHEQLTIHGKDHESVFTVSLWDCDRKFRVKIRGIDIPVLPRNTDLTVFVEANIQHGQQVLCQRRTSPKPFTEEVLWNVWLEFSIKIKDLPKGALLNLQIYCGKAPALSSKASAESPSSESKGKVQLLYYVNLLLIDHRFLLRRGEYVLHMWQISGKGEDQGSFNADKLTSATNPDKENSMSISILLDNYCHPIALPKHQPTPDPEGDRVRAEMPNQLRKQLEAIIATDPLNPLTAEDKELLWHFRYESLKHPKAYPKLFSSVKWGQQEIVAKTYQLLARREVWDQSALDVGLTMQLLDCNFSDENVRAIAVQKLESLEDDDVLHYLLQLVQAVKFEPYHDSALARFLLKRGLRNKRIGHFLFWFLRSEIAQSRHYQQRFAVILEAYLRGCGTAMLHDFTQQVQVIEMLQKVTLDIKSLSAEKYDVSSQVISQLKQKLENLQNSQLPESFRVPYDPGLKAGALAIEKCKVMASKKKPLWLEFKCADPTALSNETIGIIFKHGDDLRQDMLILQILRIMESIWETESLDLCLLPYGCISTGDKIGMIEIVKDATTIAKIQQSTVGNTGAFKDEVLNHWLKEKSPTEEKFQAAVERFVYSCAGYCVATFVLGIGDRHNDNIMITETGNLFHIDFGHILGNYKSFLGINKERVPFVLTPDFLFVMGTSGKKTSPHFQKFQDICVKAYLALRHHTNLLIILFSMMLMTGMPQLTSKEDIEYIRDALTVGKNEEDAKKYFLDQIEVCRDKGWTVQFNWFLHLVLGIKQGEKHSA
Text: as §1

[4] = molecular target: Phosphatidylinositol 4,5-bisphosphate 3-kinase catalytic subunit beta isoform (Homo sapiens, UniProt P42338)
Chain of Phosphatidylinositol 4,5-bisphosphate 3-kinase catalytic subunit beta isoform (P42338 whole entry, canonical isoform): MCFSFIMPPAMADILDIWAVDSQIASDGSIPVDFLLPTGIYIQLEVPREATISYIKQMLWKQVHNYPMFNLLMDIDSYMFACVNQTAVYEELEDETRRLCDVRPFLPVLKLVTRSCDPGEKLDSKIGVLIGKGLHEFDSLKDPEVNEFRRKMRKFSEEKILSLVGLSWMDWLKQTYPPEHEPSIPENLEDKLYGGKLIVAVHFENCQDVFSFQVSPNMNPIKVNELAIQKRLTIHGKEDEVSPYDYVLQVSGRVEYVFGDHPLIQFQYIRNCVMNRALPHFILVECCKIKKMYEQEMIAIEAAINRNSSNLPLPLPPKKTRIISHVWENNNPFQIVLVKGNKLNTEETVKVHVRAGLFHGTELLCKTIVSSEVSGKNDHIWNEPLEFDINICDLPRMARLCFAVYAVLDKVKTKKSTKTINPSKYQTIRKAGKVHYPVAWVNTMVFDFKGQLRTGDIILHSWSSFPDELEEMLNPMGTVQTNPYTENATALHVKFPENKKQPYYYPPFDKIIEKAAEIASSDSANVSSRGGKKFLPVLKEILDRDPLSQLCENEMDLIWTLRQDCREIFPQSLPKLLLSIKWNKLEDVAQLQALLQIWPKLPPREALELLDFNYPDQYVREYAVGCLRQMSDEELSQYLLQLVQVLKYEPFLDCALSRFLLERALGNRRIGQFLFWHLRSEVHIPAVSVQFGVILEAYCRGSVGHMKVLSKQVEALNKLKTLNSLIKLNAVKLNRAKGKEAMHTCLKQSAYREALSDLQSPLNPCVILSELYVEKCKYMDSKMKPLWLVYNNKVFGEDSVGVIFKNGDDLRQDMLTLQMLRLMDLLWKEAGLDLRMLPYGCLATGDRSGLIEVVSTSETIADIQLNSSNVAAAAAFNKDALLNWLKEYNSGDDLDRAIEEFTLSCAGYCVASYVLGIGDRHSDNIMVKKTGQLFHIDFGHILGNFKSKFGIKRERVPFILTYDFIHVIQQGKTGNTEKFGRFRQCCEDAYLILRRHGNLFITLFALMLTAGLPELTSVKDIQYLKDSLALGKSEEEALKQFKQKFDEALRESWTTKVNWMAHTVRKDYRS
Text: as §1

Chain of Phosphatidylinositol 4,5-bisphosphate 3-kinase catalytic subunit alpha isoform (P42336 whole entry, canonical isoform): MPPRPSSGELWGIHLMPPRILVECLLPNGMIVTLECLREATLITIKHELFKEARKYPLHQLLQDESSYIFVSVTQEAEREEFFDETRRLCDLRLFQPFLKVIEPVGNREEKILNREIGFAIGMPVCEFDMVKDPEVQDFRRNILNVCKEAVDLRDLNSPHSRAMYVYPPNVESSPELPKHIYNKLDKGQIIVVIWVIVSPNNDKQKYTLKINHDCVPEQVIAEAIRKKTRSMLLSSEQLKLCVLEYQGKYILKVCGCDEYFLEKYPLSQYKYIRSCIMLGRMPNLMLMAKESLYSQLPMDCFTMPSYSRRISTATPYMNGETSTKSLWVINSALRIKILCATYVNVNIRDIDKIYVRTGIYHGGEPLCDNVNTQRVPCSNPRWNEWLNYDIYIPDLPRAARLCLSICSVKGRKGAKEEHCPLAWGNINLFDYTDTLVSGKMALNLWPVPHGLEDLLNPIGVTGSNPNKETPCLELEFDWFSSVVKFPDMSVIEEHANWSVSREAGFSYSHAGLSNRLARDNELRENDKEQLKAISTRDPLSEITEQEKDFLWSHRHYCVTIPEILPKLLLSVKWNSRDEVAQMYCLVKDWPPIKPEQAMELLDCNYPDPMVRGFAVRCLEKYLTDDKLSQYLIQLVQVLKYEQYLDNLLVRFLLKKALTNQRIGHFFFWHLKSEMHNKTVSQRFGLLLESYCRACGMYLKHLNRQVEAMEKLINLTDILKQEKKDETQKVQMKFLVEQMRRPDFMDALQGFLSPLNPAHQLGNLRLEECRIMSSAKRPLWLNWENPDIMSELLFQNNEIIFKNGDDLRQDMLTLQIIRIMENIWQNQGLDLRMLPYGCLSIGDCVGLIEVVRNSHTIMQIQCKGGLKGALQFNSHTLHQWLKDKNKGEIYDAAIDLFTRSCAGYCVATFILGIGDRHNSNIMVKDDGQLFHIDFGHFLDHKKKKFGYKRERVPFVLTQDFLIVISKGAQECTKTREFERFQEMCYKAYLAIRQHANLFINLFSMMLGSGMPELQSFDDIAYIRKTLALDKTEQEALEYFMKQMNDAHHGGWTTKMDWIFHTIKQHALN

Row | Compound | pIC50 [1] | other results
1 | Cn1ncc2c(=O)[nH]c(N3CCOCC3)nc21 [ETP-45700, 6] | < 4.30 | –
2 | COc1cccc(-c2nc(N3CCOCC3)c3cnn(C)c3n2)c1 [ETP-45871, 15] | 5.24 | –
3 | Cn1ncc2c(Oc3ccc(Cl)cc3)nc(N3CCOCC3)nc21 [ETP-45419, 3d] | 5.26 | –
4 | CC(=O)Nc1cccc(-c2nc(N3CCOCC3)c3cnn(C)c3n2)c1 [ETP-45876, 17] | 5.15 | –
5 | Cn1ncc2c(OCc3ccccc3)nc(N3CCOCC3)nc21 [ETP-45415, 3a] | 4.45 | –
6 | CC(C)Oc1nc(N2CCOCC2)nc2c1cnn2C [ETP-45797, 7] | 4.79 | –
7 | Cn1ncc2c(SCc3ccccc3)nc(N3CCOCC3)nc21 [ETP-45654, 3c] | < 4.30 | –
8 | CSc1cccc(-c2nc(N3CCOCC3)c3cnn(C)c3n2)c1 [ETP-45875, 16] | 5.45 | –
9 | COC(=O)c1cccc(-c2nc(N3CCOCC3)c3cnn(C)c3n2)c1 [ETP-45867, 14] | 6.08 | –
10 | Cn1ncc2c(N3CCOCC3)nc(-c3cccc(O)c3)nc21 [ETP-45658, 13] | – | pIC50 [2]: 7.52; pIC50 [3]: 6.14; pIC50 [4]: 6.89

The next lines start with results.

Row | pIC50 [1] | Compound | other results
11 | 6.40 | COc1cccc(Nc2nc(N3CCOCC3)nc3c2cnn3C)c1 | –
12 | 4.43 | Cn1ncc2c(NCc3ccccc3)nc(N3CCOCC3)nc21 [ETP-45416, 3b] | –
13 | 5.78 | Cn1ncc2c(-c3cccc(NS(C)(=O)=O)c3)nc(N3CCOCC3)nc21 [ETP-45799, 10] | –
14 | 4.90 | COc1cccc(Nc2nc(N3CCN(CCO)CC3)nc3c2cnn3C)c1 [ETP-8162] | –
15 | 5.31 | CN1CCN(c2nc(Nc3cccc(Cl)c3)c3cnn(C)c3n2)CC1 [ETP-5935] | –
16 | 6.94 | Cn1ncc2c(-c3cccc(O)c3)nc(N3CCOCC3)nc21 [ETP-45798, 9] | –
17 | 4.90 | CC1CN(c2nc(Nc3ccccc3)c3cnn(C)c3n2)CC(C)O1 (stereo unspecified) [ETP-6531] | –
18 | 5.04 | COc1cccc(Nc2nc(N3CCN(C)CC3)nc3c2cnn3C)c1 [ETP-7146] | –
19 | 6.01 | Cc1cccc(Oc2nc(N3CCOCC3)nc3c2cnn3C)c1 [ETP-45874, 11] | –
